Data on seven compounds can be found in patent publication US20240376097A1, “BCL-2 Inhibitor” (BeiGene Ltd., priority 2020, published 2024).

Where two headings read alike, the source gives them in different places.

The subject of assay [1] is RS4;11 (BCL-2 dependent acute lymphoblastic leukemia cell line). Nature of the assay: RS4;11 Cell Proliferation Assay. The following applies: Homo sapiens, RS4-11, RS4;11 cells, read-out: Cellular proliferation assay (IC50, nM) RS4. The class given is cell-based. A digest of the protocol: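 Viability measured via CellTiter-Glo luminescence after a 48 h, 37 °C exposure to compounds (10 points, highest 1 μM). Seeding was 50,000 RS4;11 cells per well in 10% FBS RPMI-1640; IC50 given as mean.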

The target of assay [2] is Recombinant human Bcl-2 protein (Homo sapiens (Human), UniProt P10415). Put plainly: Bcl-2 TR-FRET Assay. The class given is binding. The essentials:
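TR-FRET read (337 nm excitation, 520/490 nm emission) after 1 h with 0.5 nM FITC-labeled Bak peptide and Tb-cryptate anti-6His antibody. Bcl-2 at 0.05 nM had been pre-incubated 0.5 h with compound. IC50 fitted by four-parameter logistic equation.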

For assay [3], the system named is BCL-2 G101V knock-in cell line H96 (derive from RS4;11). Put plainly: Bcl 2-G101V Knock-In RS4;11 Cell Proliferation Assay. Format: cell-based. The following applies: Homo sapiens, RS4;11 Bcl-2 G101V knock-in clone H96, 48 hrs, CellTiter-GLO, read-out: Cellular proliferation assay (IC50, nM) RS4. The essentials:
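CellTiter-Glo luminescence after 48 h, 37 °C compound treatment (10 concentrations, maximum 1 μM or 10 μM) gave mean IC50 values. Cells were 50,000 per well of H96, a BCL2-G101V knock-in single clone derived from RS4;11 by Cas9 editing.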
For orientation: ATP-based viability assays read luminescence as a measure of living cells.

In assay [4] the target is recombinant human Bcl-2 D103Y protein (Homo sapiens (Human), UniProt P10415, D103Y). Nature of the assay: Bcl-2-D103Y Biochemical Assay (TR-FRET). Format: binding. The settings on record: for IC50: TR-FRET, FITC labeled Bak peptide; for ratio of Bcl-2 D103Y/Bcl-2 wt, compared with F91b in WO2019210828: comparison in words; for Ratio of Bcl-2 D103Y/Bcl-2 WT: ratio of IC50. A digest of the protocol: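 Compounds titrated against the Bcl-2 D103Y–ligand interaction; inhibition derived from the TR-FRET emission ratio 490 nm/520 nm after 337 nm excitation. Four-parameter logistic fitting gave IC50.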

In assay [5] the target is recombinant human Bcl-2-G101V protein (Homo sapiens (Human), UniProt P10415, G101V). Put plainly: Bcl-2-G101V TR-FRET Assay. Format: binding. The following applies: Bcl-2 G101V mutant, TR-FRET; read-out: Biochemical assay (IC50, nM) Bcl-2 G101V. A digest of the protocol:
(§1)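 TR-FRET read at excitation 337 nm with emission at 490 nm and 520 nm. Inhibition of Bcl-2-G101V binding to its ligand across increasing compound concentrations was calculated from the 490/520 nm fluorescence ratio, and IC50 values came from four-parameter logistic fits.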
(In general: Time-resolved FRET reads energy transfer from a long-lived donor to a nearby acceptor.)

In assay [6] the test system is recombinant human Bcl-2-G101V protein. Nature of the assay: Bcl-2-G101V TR-FRET Assay. The following applies: for ratio of IC50 of Bcl-2 G101V/Bcl-2 wt, compared with Example F132b in WO2019210828 and ABT-199 (venetoclax): comparison in words; for Ratio of Bcl-2 G101V/WT: ratio of biochemical IC50 Bcl-2 G101V / Bcl-2 WT. The class given is binding. The essentials:
as §1

Where [7] appears, read: Bcl-2 wild type, TR-FRET, read-out: Biochemical assay (IC50, nM) Bcl-2 WT.
Where [8] appears, read: wild type Bcl-2, unit inferred, read-out: Bcl-2 WT.

`CC(C)c1ccccc1C1CN(Cc2ccccc2)CCN1C1CC2(CCN(c3ccc(C(=O)NS(=O)(=O)c4ccc(NC[C@H]5CC[C@](C)(O)CC5)c([N+](=O)[O-])c4)c(Oc4cnc5[nH]ccc5c4)c3)CC2)C1` (stereo partly drawn) [Example 23, 2-((1H-pyrrolo[2,3-b]pyridin-5-yl)oxy)-4-(2-(4-benzyl-2-(2-isopropylphenyl)piperazin-1-yl)-7-azaspiro[3.5]nonan-7-yl)-N-((4-((((1r,4r)-4-hydroxy-4-methylcyclohexyl)methyl)amino)-3-nitrophenyl)sulfonyl)benzamide]: the IC50 is 0.39 nM in assay [1]; 0.45 nM in assay [2] (setting [7]); 0.13 nM in assay [2] (setting [8]); 2.66 nM in assay [3]; 0.26 nM in assay [4]; 2.1 nM in assay [5]. The “ratio of Bcl-2 D103Y/Bcl-2 wt, compared with F91b in WO2019210828” value in assay [4] is given as “significantly lower”. Also, the “Ratio of Bcl-2 D103Y/Bcl-2 WT” value in assay [4] was 2. Also, in assay [6], the “ratio of IC50 of Bcl-2 G101V/Bcl-2 wt, compared with Example F132b in WO2019210828 and ABT-199 (venetoclax)” value was “much lower”. Also, the “Ratio of Bcl-2 G101V/WT” value in assay [6] stood at 4.7.

`CC(C)c1ccccc1C1CN(Cc2ccc3c(c2)OCO3)CCN1C1CC2(CCN(c3ccc(C(=O)NS(=O)(=O)c4ccc(NC[C@H]5CC[C@](C)(O)CC5)c([N+](=O)[O-])c4)c(Oc4cnc5[nH]ccc5c4)c3)CC2)C1` (stereo partly drawn) [Example 122, 2-((1H-pyrrolo[2,3-b]pyridin-5-yl)oxy)-4-(2-(4-(benzo[d][1.3]dioxol-5-ylmethyl)-2-(2-isopropylphenyl)piperazin-1-yl)-7-azaspiro[3.5]nonan-7-yl)-N-((4-((((1r,4r)-4-hydroxy-4-methylcyclohexyl)methyl)amino)-3-nitrophenyl)sulfonyl)benzamide]: the IC50 in assay [1] stood at 0.3 nM; in assay [2] (setting [7]), 0.19 nM; in assay [2] (setting [8]) it was 0.19 nM; in assay [3] it was 2.2 nM; in assay [4] it was 0.47 nM; in assay [5], 0.92 nM. Moreover, in assay [4], the “Ratio of Bcl-2 D103Y/Bcl-2 WT” value amounted to 2.5. Besides, the “Ratio of Bcl-2 G101V/WT” value in assay [6] stood at 5.

With `CC(C)c1ccccc1C1CN(Cc2ccc(S(C)(=O)=O)cc2)CCN1C1CC2(CCN(c3ccc(C(=O)NS(=O)(=O)c4ccc(NC[C@H]5CC[C@](C)(O)CC5)c([N+](=O)[O-])c4)c(Oc4cnc5[nH]ccc5c4)c3)CC2)C1` (stereo partly drawn) [Example 82, 2-((1H-pyrrolo[2,3-b]pyridin-5-yl)oxy)-N-((4-((((1r,4r)-4-hydroxy-4-methylcyclohexyl)methyl)amino)-3-nitrophenyl)sulfonyl)-4-(2-(2-(2-isopropylphenyl)-4-(4-(methylsulfonyl)benzyl)piperazin-1-yl)-7-azaspiro[3.5]nonan-7-yl) benzamide], the IC50 came to 0.42 nM in assay [1]; 0.031 nM in assay [2] (setting [7]); 0.031 nM in assay [2] (setting [8]); 2.67 nM in assay [3]; 0.17 nM in assay [4]; 0.29 nM in assay [5]. In addition, the “Ratio of Bcl-2 D103Y/Bcl-2 WT” value in assay [4] turned out to be 5.6. The “Ratio of Bcl-2 G101V/WT” value in assay [6] is on record as 9.5.

For `CC(C)c1ccccc1C1CN(CC2CCCCC2)CCN1C1CC2(CCN(c3ccc(C(=O)NS(=O)(=O)c4ccc(NC[C@H]5CC[C@](C)(O)CC5)c([N+](=O)[O-])c4)c(Oc4cnc5[nH]ccc5c4)c3)CC2)C1` (stereo partly drawn) [Example 16, 2-((1H-pyrrolo[2,3-b]pyridin-5-yl)oxy)-4-(2-(4-(cyclohexylmethyl)-2-(2-isopropylphenyl)piperazin-1-yl)-7-azaspiro[3.5]nonan-7-yl)-N-((4-((((1r,4r)-4-hydroxy-4-methylcyclohexyl)methyl)amino)-3-nitrophenyl)sulfonyl)benzamide], the IC50 in assay [1] stood at 0.81 nM; in assay [2] (setting [7]) it was 0.26 nM; in assay [2] (setting [8]), 0.26 nM; in assay [3] it was 8.6 nM; in assay [4] it was 0.63 nM; in assay [5] it was 1.7 nM. The “ratio of Bcl-2 D103Y/Bcl-2 wt, compared with F91b in WO2019210828” value in assay [4] is recorded as “significantly lower”. In addition, the “Ratio of Bcl-2 D103Y/Bcl-2 WT” value in assay [4] came to 2.5. For the same compound, in assay [6], the “ratio of IC50 of Bcl-2 G101V/Bcl-2 wt, compared with Example F132b in WO2019210828 and ABT-199 (venetoclax)” value is listed as “much lower”. Further, in assay [6], the “Ratio of Bcl-2 G101V/WT” value is 6.5.

Turning to `COc1cc(CN2CCN(C3CC4(C3)CN(c3ccc(C(=O)NS(=O)(=O)c5ccc(NC[C@H]6CC[C@](C)(O)CC6)c([N+](=O)[O-])c5)c(Oc5cnc6[nH]ccc6c5)c3)C4)[C@H](c3ccccc3C(C)C)C2)cc2c1OCCC2` [Example 318, 2-((1H-pyrrolo[2,3-b]pyridin-5-yl)oxy)-N-((4-((((1r,4r)-4-hydroxy-4-methylcyclohexyl)methyl)amino)-3-nitrophenyl)sulfonyl)-4-(6-((R)-2-(2-isopropylphenyl)-4-((8-methoxychroman-6-yl)methyl)piperazin-1-yl)-2-azaspiro[3.3]heptan-2-yl)benzamide], the IC50 in assay [1] turned out to be 0.2 nM; in assay [2] (setting [7]), 0.056 nM; in assay [2] (setting [8]) it was 0.056 nM; in assay [3], 0.31 nM; in assay [4] it was 0.052 nM; in assay [5], 0.16 nM. The “Ratio of Bcl-2 D103Y/Bcl-2 WT” value in assay [4] is reported as 0.9. In addition, the “Ratio of Bcl-2 G101V/WT” value in assay [6] amounted to 2.9.

`Cc1ccc(CN2CCN(C3CC4(CCN(c5ccc(C(=O)NS(=O)(=O)c6ccc(NC[C@H]7CC[C@](C)(O)CC7)c([N+](=O)[O-])c6)c(Oc6cnc7[nH]ccc7c6)c5)CC4)C3)C(c3ccccc3C(C)C)C2)cc1` (stereo partly drawn) [Example 30, 2-((1H-pyrrolo[2,3-b]pyridin-5-yl)oxy)-N-((4-((((1r,4r)-4-hydroxy-4-methylcyclohexyl)methyl)amino)-3-nitrophenyl)sulfonyl)-4-(2-(2-(2-isopropylphenyl)-4-(4-methylbenzyl)piperazin-1-yl)-7-azaspiro[3.5]nonan-7-yl) benzamide]: the IC50 turned out to be 0.53 nM in assay [1]; 0.27 nM in assay [2] (setting [7]); 0.27 nM in assay [2] (setting [8]); 3.48 nM in assay [3]; 0.42 nM in assay [4]; 1.1 nM in assay [5]. In addition, in assay [4], the “Ratio of Bcl-2 D103Y/Bcl-2 WT” value worked out at 1.6. Besides, the “Ratio of Bcl-2 G101V/WT” value in assay [6] is reported as 4.1.

As to `COc1nn(C)cc1CN1CCN(C2CC3(CCN(c4ccc(C(=O)NS(=O)(=O)c5ccc(NC[C@H]6CC[C@](C)(O)CC6)c([N+](=O)[O-])c5)c(Oc5cnc6[nH]ccc6c5)c4)CC3)C2)C(c2ccccc2C(C)C)C1` (stereo partly drawn) [Example 71, 2-((1H-pyrrolo[2,3-b]pyridin-5-yl)oxy)-N-((4-((((1r,4r)-4-hydroxy-4-methylcyclohexyl)methyl)amino)-3-nitrophenyl)sulfonyl)-4-(2-(2-(2-isopropylphenyl)-4-((3-methoxy-1-methyl-1H-pyrazol-4-yl)methyl)piperazin-1-yl)-7-azaspiro[3.5]nonan-7-yl)benzamide], the IC50 in assay [1] came out at 0.43 nM; in assay [2] (setting [7]), 0.02 nM; in assay [2] (setting [8]) it was 0.02 nM; in assay [3] it was 2 nM; in assay [4] it was 0.15 nM; in assay [5], 0.17 nM. Also, the “Ratio of Bcl-2 D103Y/Bcl-2 WT” value in assay [4] turned out to be 7.6. In addition, in assay [6], the “Ratio of Bcl-2 G101V/WT” value was 8.3.
